Assay results reported in PubChem BioAssay AID2060335 (Molecular Pharmacology Branch, DTP, NCI, 2025).
Where “and” joins values, the source holds several entries; their conditions need not be identical. Equal entries are not always repeated.

Tested on: DU-145 multicell spheroids with HUVEC/MSC, viability
Test: Anticancer human tumor DU-145 cell line growth inhibition [IpAb];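 also: spheroids exposed to agents for seven days before measurement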;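 as to viability, T/C: percent of DMSO vehicle control viability so 100% = untreated level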
Details: for viability, T/C: stronger effect = lower value
Source text: Combinatorial screen of targeted agents with ipatasertib and abemaciclib in multi-cell type tumor spheroids
A high-throughput screen of multi-cell type tumor spheroids was designed to identify active combinations of targeted small molecules and ipatasertib or abemaciclib. Complex spheroids include a stromal component modeled by human endothelial cells (HUVEC) and fibroblasts modeled by human mesenchymal stem cells (MSCs). The concentration ranges selected for each drug and investigational agent were based upon clinically achievable concentrations if the clinical Cmax of the agent was known.
Compounds. The drugs and investigational agents: ipatasertib (NSC767898), abemaciclib(NSC768073), selumetinib (NSC741078), trametinib (758246), adavosertib (NSC754352), everolimus (NSC733504), sapanisertib (NSC764658), vemurafenib (NSC761431), venetoclax (NSC766270), copanlisib (NSC809693), apelisib (NSC765974), palbociblib (NSC758247), vemurafenib (NSC761431), dabrafenib (NSC764134), ravoxertinib (NSC781343), BMS-387032 (NSC767048), sotorasib (NSC818433), talazoparib (NSC767125) and afursertib (NSC778305), were obtained from the National Cancer Institute (NCI) Developmental Therapeutics Program Chemical Repository. The FDA-approved anticancer drug set is available from the NCI Developmental Therapeutics Program. […] The stock solutions were prepared in dimethyl sulfoxide (DMSO, Sigma-Aldrich, St. Louis, MO, cat. D2650) at 800-fold the tested concentration and stored at -70 degrees C prior to their use. All drugs and investigational agents were tested over a range starting from a high concentration at or near the clinical Cmax and decreasing in half-log increments. If the clinical Cmax for an agent had not been determined, the highest concentration tested was 10 microM.
NCI60 Cell Culture. NCI60 cell lines were obtained from the NCI Developmental Therapeutics Program Tumor Repository. For each lot of cells, the Repository performed Applied Biosystems AmpFLSTR Identifiler testing with PCR amplification to confirm consistency with the published Identifier STR profile for each cell line. Cells were kept in continuous culture for no more than 20 passages. The optimal seeding densities for each of the cell lines at each time point assessed were determined prior to performing the concentration response studies. Briefly, the NCI60 human tumor lines were grown as monolayers in RPMI 1640 medium supplemented with 10% FBS and 2 mmol/L L-glutamine.
An additional 9 lines were from the NCI60 cell line panel including MDA-MB-231 breast carcinoma, MDA-MB-468 breast carcinoma, MCF7 breast carcinoma, Hs578T breast carcinoma, MALME-3M melanoma, SK-MEL-2 melanoma, SK-OV-3 ovarian carcinoma, DU-145 prostate carcinoma, PC-3 prostate carcinoma, all cell lines along with major genetic alterations are listed on Table 2. Pooled donor human umbilical vein endothelial cells (HUVEC, Lonza, cat. CC-2519) and human mesenchymal stem cells (hMSC, Lonza, cat. PT-2501) were purchased from Lonza (Walkersville, MD).
PDMR cell lines were grown in complete medium (DC medium): Dulbecco's modified Eagle's medium (DMEM)/F12 supplemented with 5% fetal bovine serum (FBS), 2 mM L-glutamine, 100 U/mL penicillin and 100 µg/ml streptomycin, 0.4 µg/ml hydrocortisone, 10 ng/ml epidermal growth factor (EGF) recombinant human protein, 24 µg/mL adenine, and 0.1 mg/mL primocin. During culture from frozen stock vials, PDMR cells were cultured in the same medium containing 10 µM Y-27632 (see Table 3). The PDCs were cultured in complete DMEM/F12 media without 10 microM Y-27632 dihydrochloride for at least two passages prior to the screen. The pooled donor HUVEC and hMSC were cultured in endothelial cell growth medium 2 (PromoCell, Heidelberg, Germany, cat. C-22011) and mesenchymal stem cell growth medium 2 (PromoCell, cat. C-28009), respectively. For all experiments, HUVEC and hMSC were used at passages </=5.
[…]

In the case of `Cc1nc(NC(=O)N2CCCC2C(N)=O)sc1-c1ccnc(C(C)(C)C(F)(F)F)c1` (stereo not given), the viability, T/C (compound 0.0316 µM) is reported as 81% and 75.7%, the viability, T/C (compound 0.1 µM) is reported as 60.6% and 54.3% and the viability, T/C (compound 0.316 µM) is reported as 39.9% and 37.3%. For the same molecule, the viability, T/C (compound 1 µM) was 29% and 31.4%, the viability, T/C (compound 3.16 µM) was 21.7% and 20.9% and the viability, T/C (compound 10 µM) was 8.51% and 8.2%. The IC50 (curve of compound) was 192 nM and 160 nM.
`Cn1cnc2c(F)c(Nc3ccc(Br)cc3Cl)c(C(=O)NOCCO)cc21` was tested, and the viability, T/C (compound 0.00949 µM) was 84.1% and 81.8%, the viability, T/C (compound 0.03 µM) was 67.6% and 74.4% and the viability, T/C (compound 0.0949 µM) was 60.8% and 66.5%. For the same molecule, the viability, T/C (compound 0.3 µM) was 55.5% and 53.2%, the viability, T/C (compound 0.949 µM) was 48% and 51.1% and the viability, T/C (compound 3 µM) was 42.9% and 37.9%. For the same molecule, the IC50 (curve of compound) was 597 nM and 704 nM.
For `Cn1ncc(Cl)c1-c1cc(C(=O)NC(CN)Cc2cccc(F)c2)sc1Cl` (stereo not given), the viability, T/C (compound 0.0316 µM) was 92.5% and 86.1%, the viability, T/C (compound 0.1 µM) was 74.3% and 61.8% and the viability, T/C (compound 0.316 µM) was 41.4% and 33.2%. The viability, T/C (compound 1 µM) was 27.6% and 23.1%, the viability, T/C (compound 3.16 µM) was 20.3% and 15.2% and the viability, T/C (compound 10 µM) was 1.17% and 1.6%. The IC50 (curve of compound) was 271 nM and 163 nM.
With `Cn1nccc1Nc1nccc(-c2ccn(C(CO)c3ccc(Cl)c(F)c3)c(=O)c2)n1` (stereo not given) the viability, T/C (compound 0.0316 µM) was 87.3% and 90%, the viability, T/C (compound 0.1 µM) was 72.5% and 77.1% and the viability, T/C (compound 0.316 µM) was 79% and 73.5%. For the same molecule, the viability, T/C (compound 1 µM) was 93.7% and 87.4%, the viability, T/C (compound 3.16 µM) was 112% and 116% and the viability, T/C (compound 10 µM) was 65% and 81.9%. The IC50 (curve of compound) was > 10000 nM.
For `Cn1ncnc1[C@H]1c2n[nH]c(=O)c3cc(F)cc(c23)N[C@@H]1c1ccc(F)cc1`, the viability, T/C (compound 0.000316 µM) was 109% and 101%, the viability, T/C (compound 0.001 µM) was 105% and 99.7% and the viability, T/C (compound 0.00316 µM) was 97.9% and 92.2%. The viability, T/C (compound 0.01 µM) was 99.3% and 96.5%, the viability, T/C (compound 0.0316 µM) was 95.1% and 97.6% and the viability, T/C (compound 0.1 µM) was 92.9% and 80.5%. For the same molecule, the IC50 (curve of compound) was > 100 nM.
`Cn1cnc2c(F)c(Nc3ccc(Br)cc3Cl)c(C(=O)NOCCO)cc21` + CC(C)NCC(C(=O)N1CCN(c2ncnc3c2C(C)CC3O)CC1)c1ccc(Cl)cc1 was tested, and the IC50 (curve of first compound, second compound 0.1 µM) was 158 nM, the IC50 (curve of first compound, second compound 0.316 µM) was < 9.49 nM and the IC50 (curve of first compound, second compound 1 µM) was < 9.49 nM. For the same molecule, the IC50 (curve of first compound, second compound 3.16 µM) was < 9.49 nM, the IC50 (curve of first compound, second compound 10 µM) was < 9.49 nM and the viability, T/C (second compound 0.1 µM, first compound 0.00949 µM) was 64.7%. The viability, T/C (second compound 0.1 µM, first compound 0.03 µM) was 62.4%, the viability, T/C (second compound 0.1 µM, first compound 0.0949 µM) was 52.3% and the viability, T/C (second compound 0.1 µM, first compound 0.3 µM) was 41.3%. For the same molecule, the viability, T/C (second compound 0.1 µM, first compound 0.949 µM) was 46.5%, the viability, T/C (second compound 0.1 µM, first compound 3 µM) was 34.9% and the viability, T/C (second compound 0.316 µM, first compound 0.00949 µM) was 44.7%. For the same molecule, the viability, T/C (second compound 0.316 µM, first compound 0.03 µM) was 41.9%, the viability, T/C (second compound 0.316 µM, first compound 0.0949 µM) was 38.8% and the viability, T/C (second compound 0.316 µM, first compound 0.3 µM) was 33.1%. The viability, T/C (second compound 0.316 µM, first compound 0.949 µM) was 32.9%, the viability, T/C (second compound 0.316 µM, first compound 3 µM) was 25% and the viability, T/C (second compound 1 µM, first compound 0.00949 µM) was 31.4%. For the same molecule, the viability, T/C (second compound 1 µM, first compound 0.03 µM) was 30.4%, the viability, T/C (second compound 1 µM, first compound 0.0949 µM) was 27.6% and the viability, T/C (second compound 1 µM, first compound 0.3 µM) was 23%. For the same molecule, the viability, T/C (second compound 1 µM, first compound 0.949 µM) was 21.5%, the viability, T/C (second compound 1 µM, first compound 3 µM) was 19.2% and the viability, T/C (second compound 3.16 µM, first compound 0.00949 µM) was 18.2%. For the same molecule, the viability, T/C (second compound 3.16 µM, first compound 0.03 µM) was 17%, the viability, T/C (second compound 3.16 µM, first compound 0.0949 µM) was 16.5% and the viability, T/C (second compound 3.16 µM, first compound 0.3 µM) was 14.3%. For the same molecule, the viability, T/C (second compound 3.16 µM, first compound 0.949 µM) was 14.5%, the viability, T/C (second compound 3.16 µM, first compound 3 µM) was 12% and the viability, T/C (second compound 10 µM, first compound 0.00949 µM) was 16.2%. It also gave a viability, T/C (second compound 10 µM, first compound 0.03 µM) of 13.7%, a viability, T/C (second compound 10 µM, first compound 0.0949 µM) of 13.3% and a viability, T/C (second compound 10 µM, first compound 0.3 µM) of 11.8%. For the same molecule, the viability, T/C (second compound 10 µM, first compound 0.949 µM) was 11.4% and the viability, T/C (second compound 10 µM, first compound 3 µM) was 10.4%.
